# Experimental data as given in patent publication US6387431B1, “Dicarboalkoxy dioxolanes as flavoring agent releasing compounds” (Givaudan SA, priority 2000, dated 2002).
# Tests used:
# [1] = Stability (decomposition) in a still lemon beverage, hexane extraction and GC; format: physicochemical; conditions: for half life t½: 100 ppm, over 5 days, first order kinetic assumed
# Description: The stability of compound 1 of Example 1 was tested in a still lemon beverage prepared by 1+5 dilution of lemon/lime-lemon beverage concentrate (210 g) with water ([…]). Formula of the lemon/lime-lemon beverage concentrate used: [table] Three 100 ml solutions containing each 100 ppm of the compound 1 were prepared and the decomposition of 1 was determined over a period of 5 days by extraction of 5 ml test solutions samples with hexane, spiked with 100 ppm of ethyl myristate. The extracts were analyzed by GC (Hewlett Packard 6890; column: DB-5, 30 m, 0.32 mm i.d.) and for each data point a mean value based on three measurements was calculated.
# [2] = aqueous solutions and acidic aqueous alcoholic and non-alcoholic beverages; cited from earlier work
Compound,half life t½ [1] [h],hydrolysis [2],other results
"CC(C)=CCCC(C)=CC1O[C@@H](C(=O)OC(C)C)[C@H](C(=O)OC(C)C)O1 (mixture of isomers) [compound 1, (E/Z)-(4R,5R)-2-(2,6-Dimethyl-hepta-1,5-dienyl)-[1,3]dioxolane-4,5-dicarboxylic acid diisopropylester]",96,,
"CCOC(=O)[C@@H]1OC(C=C(C)CCC=C(C)C)O[C@H]1C(=O)OCC (mixture of isomers) [compound 3, (E/Z)-(4R,5R)-2-(2,6-Dimethyl-hepta-1,5-dienyl)-[1,3]dioxolane-4,5-dicarboxylic acid diethylester]",,,half life ([1]; determined as in Example 6): 21 h
"CCCOC(=O)[C@@H]1OC(C=C(C)CCC=C(C)C)O[C@H]1C(=O)OCCC (mixture of isomers) [compound 5, (E/Z)-(4R,5R)-2-(2,6-Dimethyl-hepta-1,5-dienyl)-[1,3]dioxolane-4,5-dicarboxylic acid dipropylester]",264,,
COC(C=C(C)CCC=C(C)C)OC [citral dimethyl acetal],,rapidly hydrolized,
CC(C)=CCC/C(C)=C/C1OCC(C)O1 (centres unmarked) [citral propylene glycol acetal],,rapidly hydrolized,
